Data: patent US20140193370A1, “METHODS AND COMPOSITIONS FOR PROMOTING LEAN BODY MASS GROWTH” (NESTEC SA, priority 2011, published 2014)

System: adult dogs
Assay: Chronic oral OEA in the diet of dogs fed 25% more than MER; body weight gain and body composition by DEXA
Format: in vivo, dog
Excerpt: The physiological effects of regular oral OEA administration were investigated. OEA was provided as a supplement to dogs for […] to study the effect on body weight gain and body composition. Eighteen adult dogs participated in the study. Males with less than 17.5% body fat and females with less than 20% body fat were selected. Based on maintenance energy requirements (MER,) body weight and percentage of body fat, the dogs were randomly assigned into two groups. The control group (N=9) received a standard dry adult dog food (control diet without any OEA). The test group (N=9) received a selected dose of OEA incorporated into the standard diet. The dogs were fed 25% more than their MER for eight months. During the first four months, they received their ration in one meal per day. From month four to eight, they received their ration equally divided in two meals per day. Body weight was recorded weekly and dual X-ray absorptiometry (DEXA) scans were performed at baseline and every two months. Food intake was recorded daily. There was no difference in food consumption between groups (i.e., similar caloric intake).

Compound: CCCCCCCC/C=C\CCCCCCCC(=O)NCCO [OEA, oleoylethanolamide]
- Lean Gain (g/kg body weight gain) (chronic oral OEA in diet, dogs, eight months, control diet 139): 170 g/kg body weight gain
- Fat Gain (g/kg body weight gain) (chronic oral OEA in diet, dogs, eight months, control diet 1333): 853 g/kg body weight gain
- more lean body mass gained per kilogram of body weight gain than dogs fed the control diet (eight month study, OEA containing diet vs control diet): 22%
- more fat gained per kilogram of body weight gain by dogs fed the control diet than by dogs fed the OEA containing diet (eight month study, control diet vs OEA containing diet): 56%
- body fat (end of eight month study, dogs fed 25% more than MER, OEA incorporated into standard diet, control diet 16.0%): 14.8%
- gain in lean body mass (end of eight month study, dogs fed 25% more than MER, OEA incorporated into standard diet, control diet 236.9 g): 446.7 g
- food consumption (caloric intake) vs control group (food intake recorded daily, OEA diet group vs control diet group): no difference
